# Active and inactive are the calls of the source.
# Tests used:
# [1] = molecular target: Voltage-dependent T-type calcium channel subunit alpha-1H (Homo sapiens, UniProt O95180); format: functional;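 note: channel activity triggered by adding a high calcium stimulation buffer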
# [2] = molecular target: T1, Polyadenylate-binding protein 1 (Homo sapiens, UniProt P11940); assay: MLLE domain peptide-binding blockers, IC50 – biochemical, fluorescence polarization, FITC-PAM2 peptide, dose response (AID 602259); format: functional; conditions: read-out: IC50_Mean
# T1 sequence (P11940 whole entry, the tested form may be a part): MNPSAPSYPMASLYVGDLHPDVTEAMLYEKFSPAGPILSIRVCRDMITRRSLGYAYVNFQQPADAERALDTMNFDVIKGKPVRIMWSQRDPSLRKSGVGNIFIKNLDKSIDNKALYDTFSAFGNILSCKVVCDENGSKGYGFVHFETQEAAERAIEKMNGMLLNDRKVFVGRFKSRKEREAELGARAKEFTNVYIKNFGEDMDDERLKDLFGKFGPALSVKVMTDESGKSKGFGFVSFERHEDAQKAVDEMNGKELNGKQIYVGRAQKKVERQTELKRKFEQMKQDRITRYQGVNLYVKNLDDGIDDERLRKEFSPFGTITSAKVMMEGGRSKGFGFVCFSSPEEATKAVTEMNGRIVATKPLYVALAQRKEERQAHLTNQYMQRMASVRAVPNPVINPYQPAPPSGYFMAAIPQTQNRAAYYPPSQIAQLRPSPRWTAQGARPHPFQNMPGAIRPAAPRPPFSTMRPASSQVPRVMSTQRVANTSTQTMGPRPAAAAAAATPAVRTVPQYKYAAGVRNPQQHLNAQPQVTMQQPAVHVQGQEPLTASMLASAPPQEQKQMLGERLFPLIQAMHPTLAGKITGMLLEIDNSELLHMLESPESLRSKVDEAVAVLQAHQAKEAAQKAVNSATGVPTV
# [3] = molecular target: T1, Polyadenylate-binding protein 1; assay: MLLE binding blockers, Cy5 peptide tracer – biochemical, fluorescence polarization, Cy5-PAM2 peptide, secondary, miRNA deadenylation inhibitor project, dose response (AID 602260); format: functional; conditions: read-out: IC50_Mean
# [4] = Luminescence Cell-Based Dose Response HTS to Identify Activators of Luciferase Translation or Activity in H4 […] Cells. [Related pubchem assays: 1829 (Project Summary), 1814 (Primary HTS)]; format: functional
# H4 = assay: Luminescence Cell-Based Dose Response HTS to Identify Activators of 5'UTR Stem-Loop Driven Prion Protein mRNA Translation in H4 Neuroglioblastoma Cells. [Related pubchem assays: 1829 (Project Summary), 1814 (Primary HTS)]; format: functional; conditions: Homo sapiens
# [5] = Luminescence Cell-Based Dose Confirmation HTS to Identify Activators of 5'UTR Stem-Loop Driven Alpha-Synuclein mRNA Translation in H4 Neuroglioblastoma Cells. [Related pubchem assays: 1829 (Project Summary), 1814 (Primary HTS)]; format: functional
# [6] = M. tuberculosis H37Rv growth inhibitors, H37Rv strain (AID 1626); format: functional
# [7] = molecular target: T2, DNA repair and recombination protein RAD54-like (Homo sapiens, UniProt Q92698); assay: RAD54 Holliday junction migration blockers – biochemical, fluorescence, cherry-picked samples, dose series, confirmation (AID 651657); format: functional
# T2 sequence (Q92698 whole entry): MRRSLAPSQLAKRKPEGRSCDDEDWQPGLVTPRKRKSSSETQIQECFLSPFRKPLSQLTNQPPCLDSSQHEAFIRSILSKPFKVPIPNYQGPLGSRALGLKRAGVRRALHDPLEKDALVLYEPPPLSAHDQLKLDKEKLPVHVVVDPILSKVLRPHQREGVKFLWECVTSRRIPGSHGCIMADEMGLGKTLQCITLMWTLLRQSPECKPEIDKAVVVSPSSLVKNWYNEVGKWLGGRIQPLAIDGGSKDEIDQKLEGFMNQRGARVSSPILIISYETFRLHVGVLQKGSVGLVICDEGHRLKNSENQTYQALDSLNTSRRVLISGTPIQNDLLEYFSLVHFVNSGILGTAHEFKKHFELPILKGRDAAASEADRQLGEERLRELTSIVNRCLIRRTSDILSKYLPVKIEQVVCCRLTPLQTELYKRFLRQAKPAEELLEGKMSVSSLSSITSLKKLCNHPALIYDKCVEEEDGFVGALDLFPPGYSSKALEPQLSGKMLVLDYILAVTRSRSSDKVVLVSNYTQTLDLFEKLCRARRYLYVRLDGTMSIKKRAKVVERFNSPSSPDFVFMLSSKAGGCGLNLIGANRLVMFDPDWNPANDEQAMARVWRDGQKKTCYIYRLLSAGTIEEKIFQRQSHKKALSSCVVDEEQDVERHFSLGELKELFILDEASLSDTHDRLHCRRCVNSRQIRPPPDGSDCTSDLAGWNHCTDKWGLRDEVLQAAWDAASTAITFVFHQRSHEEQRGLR
# [8] = molecular target: T3, High affinity choline transporter 1 (Homo sapiens, UniProt Q9GZV3); assay: human choline transporter blockers, potency – cell-based, 5-point CRC, membrane potential dye, dose response (AID 504840); format: functional
# T3 sequence (Q9GZV3 whole entry): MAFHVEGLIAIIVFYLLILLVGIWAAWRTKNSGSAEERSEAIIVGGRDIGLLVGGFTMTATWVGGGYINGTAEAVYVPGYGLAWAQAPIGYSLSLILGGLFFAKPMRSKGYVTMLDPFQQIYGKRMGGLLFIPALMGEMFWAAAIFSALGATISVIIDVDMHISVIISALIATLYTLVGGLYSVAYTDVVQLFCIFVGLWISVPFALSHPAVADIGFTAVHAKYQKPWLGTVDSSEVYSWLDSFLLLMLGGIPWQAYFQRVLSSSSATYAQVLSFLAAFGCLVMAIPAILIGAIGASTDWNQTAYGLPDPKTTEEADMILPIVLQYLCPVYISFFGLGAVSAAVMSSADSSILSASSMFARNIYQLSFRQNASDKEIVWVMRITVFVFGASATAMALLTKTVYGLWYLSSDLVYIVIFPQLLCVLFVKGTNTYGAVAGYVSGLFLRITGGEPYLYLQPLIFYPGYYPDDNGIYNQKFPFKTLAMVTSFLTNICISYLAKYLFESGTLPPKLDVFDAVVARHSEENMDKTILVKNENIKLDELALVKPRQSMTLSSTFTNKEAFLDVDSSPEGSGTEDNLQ
# [9] = molecular target: T4, Low molecular weight phosphotyrosine protein phosphatase (Homo sapiens, UniProt P24666); format: functional; conditions: read-out: IC50_Mean;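 note: Dose-response confirmation assay measuring inhibition of LMPTP enzyme activity by fluorescence intensity read-out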
# T4 sequence (P24666 whole entry): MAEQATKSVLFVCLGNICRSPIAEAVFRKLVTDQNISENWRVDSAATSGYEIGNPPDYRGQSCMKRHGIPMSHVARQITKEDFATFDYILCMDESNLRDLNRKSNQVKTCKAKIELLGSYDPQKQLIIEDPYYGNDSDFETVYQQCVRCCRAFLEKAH
# [10] = molecular target: T5, Carboxy-terminal domain RNA polymerase II polypeptide A small phosphatase 1 (Homo sapiens, UniProt Q9GZU7); assay: CTDSP1 inhibitors, concentration-response, biochemical, absorbance readout, ultra-high-throughput screen actives (AID 540297); format: functional
# T5 sequence (Q9GZU7 whole entry): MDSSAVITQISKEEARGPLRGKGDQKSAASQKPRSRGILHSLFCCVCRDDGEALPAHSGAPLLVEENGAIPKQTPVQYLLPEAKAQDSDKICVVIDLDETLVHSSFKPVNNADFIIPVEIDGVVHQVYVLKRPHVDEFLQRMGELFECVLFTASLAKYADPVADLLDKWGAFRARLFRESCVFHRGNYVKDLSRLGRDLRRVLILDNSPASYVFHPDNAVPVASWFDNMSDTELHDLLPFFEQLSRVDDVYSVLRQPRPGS
# [11] = THP-1 cell cytotoxicity, dose response, cytotoxicity control for non-replicating M. tuberculosis project (AID 489025); format: functional
# cells = format: functional
# [12] = Vero E6 cell cytotoxicity, dose response, cytotoxicity control for non-replicating M. tuberculosis project, secondary assay (AID 492998); format: functional, VeroE6; conditions: Vero C1008
# Streptokinase A = molecular target: T6, Streptokinase A (Streptococcus pyogenes serotype M1, UniProt P10520); assay: viability-normalized secreted streptokinase activity reduction – plasminogen activation absorbance, OD405, dose response (AID 1914); format: functional, Streptococcus pyogenes M1 GAS;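 note: secreted streptokinase activity via plasminogen activation per viability signal from cell pellet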
# T6 sequence (P10520 whole entry): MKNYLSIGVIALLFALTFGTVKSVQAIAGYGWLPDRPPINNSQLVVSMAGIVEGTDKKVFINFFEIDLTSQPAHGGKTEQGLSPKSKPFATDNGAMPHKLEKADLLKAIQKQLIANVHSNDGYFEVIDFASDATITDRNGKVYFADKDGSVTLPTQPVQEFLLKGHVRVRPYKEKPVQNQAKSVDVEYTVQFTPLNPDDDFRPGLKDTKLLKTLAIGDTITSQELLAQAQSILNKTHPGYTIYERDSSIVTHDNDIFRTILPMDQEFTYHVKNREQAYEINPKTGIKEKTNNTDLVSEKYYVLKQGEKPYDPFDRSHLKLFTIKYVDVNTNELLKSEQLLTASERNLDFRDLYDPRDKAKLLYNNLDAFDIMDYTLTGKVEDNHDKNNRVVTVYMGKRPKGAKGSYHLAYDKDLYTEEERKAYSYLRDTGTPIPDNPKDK
# [13] = system: Streptococcus sp. 'group A'; assay: Streptococcus pyogenes SK(-)GAS viability under kanamycin – luminescence, BacTiterGlo, confirmation, counter-screen for streptokinase expression inhibitor project, dose response (AID 1900); format: functional, organism-based
# Streptococcus = assay: GAS UMAA2166 growth inhibition – luminescence, BacTiterGlo, counter-screen for streptokinase expression inhibitor project, dose response (AID 1915); format: functional, organism-based;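 note: potency for reduction of bacterial viability or growth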
# INS1 = assay: INS-1E survival protection against cytokine death – cell-based, luminescence, retest, dose response (AID 449756); format: functional; conditions: Rattus norvegicus;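 note: cell death triggered by IL-1 beta plus TNF-alpha plus IFN-gamma mixture; protective hits raise ATP signal compared with cytokine alone wells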
# H9c2 = assay: cells; format: functional, cell-based; conditions: Rattus norvegicus, H9c2, Myocardium;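 note: confirmatory concentration-response retest of ultra-high-throughput screening hits for modulation of myocardial damage; cell death induced by hydrogen peroxide oxidative stress; compound pretreatment for 60 min then peroxide exposure for 2 h; potency is for protecting the cells against peroxide damage rather than for killing them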
# [14] = molecular target: Induced myeloid leukemia cell differentiation protein Mcl-1 (Homo sapiens, UniProt Q07820); format: functional
# Induced myeloid leukemia cell differentiation protein Mcl-1, sequence (Q07820 whole entry): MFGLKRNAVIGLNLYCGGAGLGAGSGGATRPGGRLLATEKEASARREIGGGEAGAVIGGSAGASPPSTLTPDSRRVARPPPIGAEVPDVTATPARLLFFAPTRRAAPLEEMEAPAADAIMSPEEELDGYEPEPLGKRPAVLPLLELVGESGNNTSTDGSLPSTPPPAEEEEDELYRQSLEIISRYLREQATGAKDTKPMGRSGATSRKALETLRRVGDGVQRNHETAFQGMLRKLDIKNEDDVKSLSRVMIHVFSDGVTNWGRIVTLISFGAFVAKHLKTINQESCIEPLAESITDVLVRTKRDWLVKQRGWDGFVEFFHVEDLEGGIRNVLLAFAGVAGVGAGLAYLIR
# Voltage-dependent T-type calcium channel subunit alpha-1H, sequence (O95180 whole entry, the tested form may be a part): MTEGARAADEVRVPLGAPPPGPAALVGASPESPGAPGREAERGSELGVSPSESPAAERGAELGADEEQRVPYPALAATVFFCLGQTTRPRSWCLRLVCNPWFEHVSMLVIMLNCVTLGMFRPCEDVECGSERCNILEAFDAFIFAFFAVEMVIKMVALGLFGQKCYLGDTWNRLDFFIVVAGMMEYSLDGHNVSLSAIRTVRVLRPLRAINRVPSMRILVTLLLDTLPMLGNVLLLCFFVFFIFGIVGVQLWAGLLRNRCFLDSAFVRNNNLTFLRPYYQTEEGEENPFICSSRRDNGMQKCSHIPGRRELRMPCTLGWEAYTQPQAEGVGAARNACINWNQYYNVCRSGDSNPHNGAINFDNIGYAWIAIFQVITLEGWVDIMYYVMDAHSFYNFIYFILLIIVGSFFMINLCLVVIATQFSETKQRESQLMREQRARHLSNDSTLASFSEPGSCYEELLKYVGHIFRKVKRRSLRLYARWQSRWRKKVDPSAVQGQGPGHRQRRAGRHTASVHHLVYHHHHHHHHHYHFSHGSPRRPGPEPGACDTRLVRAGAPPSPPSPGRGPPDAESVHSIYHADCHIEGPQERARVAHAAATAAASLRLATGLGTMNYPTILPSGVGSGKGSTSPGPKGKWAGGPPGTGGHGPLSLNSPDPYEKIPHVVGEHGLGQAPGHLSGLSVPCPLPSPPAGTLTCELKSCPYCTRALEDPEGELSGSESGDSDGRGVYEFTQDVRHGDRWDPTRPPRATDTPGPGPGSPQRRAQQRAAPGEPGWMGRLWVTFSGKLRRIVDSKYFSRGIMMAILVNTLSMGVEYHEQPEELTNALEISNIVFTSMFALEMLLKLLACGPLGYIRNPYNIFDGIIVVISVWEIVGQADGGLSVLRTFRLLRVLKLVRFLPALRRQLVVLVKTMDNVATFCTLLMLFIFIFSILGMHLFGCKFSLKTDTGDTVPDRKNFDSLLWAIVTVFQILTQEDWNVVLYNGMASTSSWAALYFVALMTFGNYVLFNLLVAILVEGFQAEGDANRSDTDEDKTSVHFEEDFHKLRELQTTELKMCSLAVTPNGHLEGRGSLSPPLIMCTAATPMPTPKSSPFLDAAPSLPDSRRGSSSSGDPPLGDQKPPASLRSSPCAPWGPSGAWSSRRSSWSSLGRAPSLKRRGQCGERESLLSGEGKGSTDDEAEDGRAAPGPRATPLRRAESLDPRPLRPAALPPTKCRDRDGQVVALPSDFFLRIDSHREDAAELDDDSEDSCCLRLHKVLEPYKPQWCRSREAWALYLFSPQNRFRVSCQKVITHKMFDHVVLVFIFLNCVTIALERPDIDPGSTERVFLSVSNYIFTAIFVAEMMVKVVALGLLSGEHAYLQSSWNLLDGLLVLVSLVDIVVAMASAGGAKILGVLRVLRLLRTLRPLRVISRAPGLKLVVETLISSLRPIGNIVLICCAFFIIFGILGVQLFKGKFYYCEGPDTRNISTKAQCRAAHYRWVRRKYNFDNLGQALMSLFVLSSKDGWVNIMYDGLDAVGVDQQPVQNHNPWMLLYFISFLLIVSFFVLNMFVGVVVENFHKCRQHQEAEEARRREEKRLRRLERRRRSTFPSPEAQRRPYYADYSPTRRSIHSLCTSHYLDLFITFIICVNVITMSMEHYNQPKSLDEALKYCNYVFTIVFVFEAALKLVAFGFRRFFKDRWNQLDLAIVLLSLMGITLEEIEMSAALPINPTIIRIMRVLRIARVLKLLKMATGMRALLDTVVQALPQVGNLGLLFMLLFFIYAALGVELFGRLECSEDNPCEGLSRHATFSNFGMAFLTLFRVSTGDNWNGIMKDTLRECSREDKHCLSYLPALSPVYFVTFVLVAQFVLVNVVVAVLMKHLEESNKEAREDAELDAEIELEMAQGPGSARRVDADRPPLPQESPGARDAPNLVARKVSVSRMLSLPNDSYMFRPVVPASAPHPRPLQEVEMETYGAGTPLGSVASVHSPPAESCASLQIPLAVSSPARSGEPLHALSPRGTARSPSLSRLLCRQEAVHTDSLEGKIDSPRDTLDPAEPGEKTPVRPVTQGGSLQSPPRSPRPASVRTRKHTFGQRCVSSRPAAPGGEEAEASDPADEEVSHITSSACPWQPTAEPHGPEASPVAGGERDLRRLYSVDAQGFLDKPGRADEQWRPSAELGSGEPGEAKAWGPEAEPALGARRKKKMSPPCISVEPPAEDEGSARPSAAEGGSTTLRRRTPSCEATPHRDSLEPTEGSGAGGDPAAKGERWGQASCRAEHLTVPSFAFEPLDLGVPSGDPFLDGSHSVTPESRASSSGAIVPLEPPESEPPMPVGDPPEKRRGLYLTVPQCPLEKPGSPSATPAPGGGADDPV
smiles,measurement,setting,value
CCC(C)(C)n1nnnc1C(c1ccc(C)cc1)N1CCN(Cc2ccc3c(c2)OCO3)CC1 (stereo not given),EC50,[1],6.68 µM (active)
CCCNC(=O)NCCc1c(C)[nH]c2ccccc12,IC50,[2],45.9 µM (inactive)
same,IC50,[3],> 66 µM (inactive)
Cn1cnnc1SCc1ccc(-c2ccc(Br)cc2)o1,EC50,[4],21.2 µM (active)
same,EC50,H4,22.2 µM (active)
same,EC50,[5],20.7 µM (active)
same,IC50,[6],> 100 µM (active)
CCOc1cc2[nH]c(=O)n(Cc3ccc(C(=O)NCCCN4CCC(C)CC4)cc3)c(=O)c2cc1OCC,AC50,[7],55.9 µM (active)
Cc1cccn2c(=O)c3cc(C(=O)NCC4CCCO4)c(=N)n(C4CCCCC4)c3nc12 (stereo not given),AC50,[7],56 µM (active)
COc1ccccc1C(CNC(=O)c1cccc(NS(=O)(=O)c2ccc(C)c(F)c2)c1)N1CCCC1 (stereo not given),IC50,[8],12.5 µM (active)
O=C(N=Nc1c(O)[nH]c2ccc(F)cc12)c1ccc(NS(=O)(=O)c2cccs2)cc1,IC50,[9],80 µM (inactive)
COc1cccc(N2CCN(C(=O)C3CCCN(c4ncnc5c4nc4n5CCCCC4)C3)CC2)c1 (stereo not given),IC50,[8],16.6 µM (active)
CCCn1c2ccccc2c2cnn(CC(=O)NCCCN3CCCCC3CC)c(=O)c21 (stereo not given),IC50,[8],13.6 µM (active)
Cc1cccc(NC(=O)COc2ccc(/C=C\c3nc(O)nc(O)c3[N+](=O)[O-])cc2)c1,IC50,[10],1.78 µM (active)
same,IC50,[9],80 µM (inactive)
CCn1c(NC(=O)c2ccccc2)nc2ccccc21,CC50,[11],> 40 µM (active)
same,IC50,cells,1.94 µM (active)
same,CC50,[12],19.6 µM (active)
CCN(Cc1ccccc1)C(c1ccccn1)c1nnnn1C1CCCCC1 (stereo not given),EC50,[1],3.93 µM (active)
N=c1n(CCN2CCCC2)c2ccccc2n1CC(O)c1ccco1 (stereo not given),IC50,[2],> 66 µM (inactive)
same,IC50,[3],> 66 µM (inactive)
Cc1[nH]c2ccccc2c1C(=O)CN1CCCC(C)C1 (stereo not given),IC50,[8],15.8 µM (active)
Cn1cc(C(=O)c2ccc(Cl)cc2Cl)cc1C(=O)NN=C(N)COc1cccc(C(F)(F)F)c1,EC50,Streptokinase A,133 µM (active)
same,EC50,[13],2.31 µM (active)
same,EC50,[1],2.61 µM (active)
same,EC50,Streptococcus,> 150 µM (not active)
Cc1csc2nc(NC(=O)c3ccccc3)sc(=O)c12,IC50,[10],7.03 µM (active)
same,IC50,[9],29.8 µM (inactive)
same,AC50,INS1,> 260 µM (inactive)
O=C(OCc1nc2ccccc2s1)c1cccs1,EC50,[1],12.2 µM (active)
Cc1cccc(-c2noc(CN(C(=O)c3ccc4c(c3)OCO4)C(C)C)n2)c1,EC50,[1],8.31 µM (active)
COc1cccc(/C=N/NC(=O)c2ccncc2)c1OC(=O)c1ccc(Br)cc1,IC50,[2],25.1 µM (inactive)
same,IC50,[3],> 66 µM (inactive)
same,IC50,H9c2,12.8 µM (active)
O=C(CCN1CCOCC1)NNC(=S)NC(=O)c1ccccc1,IC50,[2],> 66 µM (inactive)
same,IC50,[3],> 66 µM (inactive)
CCCc1nc2c(C)cc(Br)cn2c1Cc1ccsc1,IC50,[2],41.9 µM (inactive)
same,IC50,[3],35.7 µM (inactive)
O=C(O)CSc1cc(C(=O)c2cc(F)ccc2O)cn2c(=O)c3c(-c4ccccc4)csc3nc12,IC50,[8],16.6 µM (active)
same,IC50,[14],2.79 µM (active)

# From ChEMBL document CHEMBL1201862, “PubChem BioAssay data set” (2004)
